Molecules are shown by their SMILES.

Regarding `C=C[C@H]1CN2CC[C@H]1C[C@@H]2[C@@H](O)c1ccnc2ccc(OC)cc12`, the logP (as a rule, a log measure of how a compound divides between an organic and an aqueous phase) came to 2.77.

Compound `Nc1ccccn1` displayed a logP of 0.4.

Consider `Cc1ccccc1CN`, for which the logP is 1.62.

As for `Cc1cc(C)cc(N)c1`, the logP is 2.09.

For the compound `Cc1cncc(C)c1`, the logP is 1.74.

Regarding `NCc1ccccc1`, the logP was found to be 1.1.

Turning to `Cc1cccc(CN)c1`, the logP came out at 1.82.

Consider `CC(=O)O[C@]1(C(=O)CO)CC[C@H]2[C@@H]3CCC4=CC(=O)CC[C@]4(C)[C@H]3[C@@H](O)C[C@@]21C`, for which the logP is 2.17.

The compound `CCCCNc1ccc(C(=O)OCCN(C)C)cc1` came in with a logP of 3.46.

`Cc1ccnc(C)c1` returned a logP of 1.58.

Regarding `CN1CCOC(c2ccccc2)c2ccccc2C1` (centres undefined), the logP was found to be 3.02.

As for `NS(=O)(=O)c1cc(C2(O)NC(=O)c3ccccc32)ccc1Cl` (centres undefined), the logP is 1.17.

For `CC(N)c1ccccc1` (centres undefined), the logP is 1.45.

Consider `NC(=O)NN=Cc1ccc([N+](=O)[O-])o1`, for which the logP came to 0.74.
